Experimental data reported in patent US20020091086A1, “Peptides that block viral infectivity and methods of use thereof” (priority 1999, published 2002).
Peptide text beside a SMILES is read from it.

How the values were obtained:
[1] = system: gp160
[2] = system: HIV-1 isolate p7300 (low PI); assay: resistant HIV-1 isolates in PBMC, p24 ELISA; assay type: cell-based; conditions: GPG 100 μM, 14 days post infection
[3] = stability in human plasma by thin layer chromatography; assay type: in vitro ADME; conditions: 37° C.; 30 minutes, two hours, eight hours
Description: The stability of GPG-NH2 in human plasma was also assessed chemically by thin layer chromatography (TLC). (See FIG. 7). In this experiment, ^14C GPG-NH2 was incubated with human plasma at 37° C. for 30 minutes, two hours, or eight hours and then the proteins were separated by TLC and were visualized by exposure of the chromatograph to autoradiography film. As shown in FIG. 7 (lanes Hp0, Hp0.5, Hp2, and Hp8), a slight shift in mobility of the small peptide was observed. […] Mass-spectrometry analysis (electrospray analysis) of the TLC spots verified that all spots, including the spot with increased mobility, were GPG-NH2.

[4] = system: Jurkat-tat III cells; assay: in vitro uptake of 14C-labelled GPG-NH2 into cells; assay type: in vitro ADME; conditions: 165 nCi (0.7 μM)
Description: (§1) Additionally, the in vitro uptake of small peptides from the culture medium into the cells was studied in a series of experiments. Accordingly, HUT78, Jurkat-tat III, and MT-2 cells were incubated with ^14C-labelled GPG-NH2 165 nCi (equivalent to 0.7 μM of GPG-NH2). An uptake of the small peptide was observed and between 8% (Jurkat-tat III cells) and 20% (HUT78 cells) of the GPG-NH2 was incorporated in the cells.

[5] = system: HUT78 cells; assay: in vitro uptake of 14C-labelled GPG-NH2 into cells; assay type: in vitro ADME; conditions: 165 nCi (0.7 μM)
Description: as §1

[6] = system: HIV-1 isolate p7141 (high PI); assay: resistant HIV-1 isolates in PBMC, p24 ELISA; assay type: cell-based; conditions: GPG 100 μM, 14 days post infection
[7] = storage stability of capsules; assay type: physicochemical; conditions: Five-hundred milligram capsules; stored at 4° C.
Excerpt: Compositions of the peptide agents suitable for gastrointestinal administration include, but not limited to, pharmaceutically acceptable powders, pills or liquids for ingestion and suppositories for rectal administration. Due to the most common routes of HIV infection and the ease of use, gastrointestinal administration, particularly oral, is the preferred embodiment of the present invention. […] As previously shown in other virus-host systems, specific antiviral activity of small peptides can be detected in serum after oral administration. (Miller et al., Appl. Microbiol., 16:1489 (1968)). Since small peptides apparently evade degradation by the patient's digestive system, they are ideal for oral administration.

[8] = system: polio viruses; assay type: cell-based
[9] = system: SF162 strain of HIV-1; assay: antiviral activity of plasma of rats fed GPG-NH2 on infected PBMC, p24; assay type: cell-based; conditions: rat plasma diluted 1/5
Description: For the assessment of biologically active GPG-NH2 in the plasma of animals fed the small peptide, plasma samples were prepared from blood obtained from the rats of the four week toxicology study the day after the last feeding. The plasma samples were diluted ⅕ in RPMI medium and were adminstered to PBMC infected with the SF162 strain of HIV-1, as described above. Viral infectivity was then monitored at seven, eleven, and fourteen days post infection by detecting the amount of p24 in the supernatent using a commercially available detection assay. (Abbott). […] In some cases, the administration of as little as 10 μM GPG-NH2 provided a sufficient concentration of small peptide in the plasma to enable the inhibition of HIV-1 replication. The percent reduction was calculated as in Table 6. The results from these experiments established that small peptides described herein can be maintained at concentrations in the body of an animal that are effective at inhibiting HIV replication.

[10] = single intravenous dose toxicity in adult mice; assay type: in vivo; conditions: intravenous injection in the tail vein, up to 1 g per kilo bodyweight
Description: In this example, the results from several in vivo toxicology studies on small peptides administered in large doses to rodents are presented. In a first experiment, a large single dose of small peptide was delivered to mice and the toxic effects were analyzed. […] In a second experiment, several doses of varying amounts of a small peptide were delivered to mice for almost three weeks. Groups of mice (five mice in each group) were given intraperitoneal injections of GPG-NH2 (0.01, 0.1 and 1 g per kilo bodyweight and day, respectively) starting at an age of 6 days. Daily injections were continued for 18 days. […] In a similar experiment, a four week toxicology study of GPG-NH2 was performed by Scantox A/S in Denmark. GPG-NH2 was given orally to rats at doses up to 1 g per kilo bodyweight per day for twenty eight days.

[11] = Exp. 1, day 7, Feeding GPG 10 (mg/ml)
[12] = Exp. 1, day 7, Feeding GPG 30 (mg/ml)
[13] = Exp. 1, day 7, Feeding GPG 100 (mg/ml)
[14] = Exp. 1, day 14, Feeding GPG 10 (mg/ml)
[15] = Exp. 1, day 14, Feeding GPG 30 (mg/ml)
[16] = Exp. 1, day 14, Feeding GPG 100 (mg/ml)
[17] = Exp. 2, day 7, Feeding GPG 10 (mg/ml)
[18] = Exp. 2, day 7, Feeding GPG 30 (mg/ml)
[19] = Exp. 2, day 7, Feeding GPG 100 (mg/ml)
[20] = Exp. 2, day 14, Feeding GPG 10 (mg/ml)
[21] = Exp. 2, day 14, Feeding GPG 30 (mg/ml)
[22] = Exp. 2, day 14, Feeding GPG 100 (mg/ml)
[23] = Exp. 3, day 14, Feeding GPG 10 (mg/ml)
[24] = Exp. 3, day 14, Feeding GPG 30 (mg/ml)
[25] = Exp. 3, day 14, Feeding GPG 100 (mg/ml)
[26] = Exp. 3, day (number not given), Feeding GPG 10 (mg/ml)
[27] = Exp. 3, day (number not given), Feeding GPG 30 (mg/ml)
[28] = Exp. 3, day (number not given), Feeding GPG 100 (mg/ml)
[29] = Exp. 4, day 11, Feeding GPG 10 (mg/ml)
[30] = Exp. 4, day 11, Feeding GPG 30 (mg/ml)
[31] = Exp. 4, day 11, Feeding GPG 100 (mg/ml)
[32] = Exp. 5, day 7, Feeding GPG 10 (mg/ml)
[33] = Exp. 5, day 7, Feeding GPG 30 (mg/ml)
[34] = Exp. 5, day 7, Feeding GPG 100 (mg/ml)

SMILES: NCC(=O)N1CCC[C@H]1C(=O)NCC(N)=O [GPG-NH2, glycyl-prolyl-glycine amide] (H-Gly-Pro-Gly-NH2)
- N- or O-linked glycosylation of the virus protein [1]: no effect
- % reduction [2]: (100%)
- HIV-1 p24 [2]: <500 pg/mL
- TLC mobility after incubation in human plasma [3]: no further change in mobility was observed at up to 8 hours
- GPG-NH2 incorporated in the cells [4]: 8%
- GPG-NH2 incorporated in the cells [5]: 20%
- % reduction [6]: (100%)
- HIV-1 p24 [6]: <500 pg/mL
- stability on storage [7]: ≥ 12 months
- inhibition of polio virus [8]: failed inhibit either influenza or polio viruses
- % reduction [9, 11]: 82.8%
- p24 [9, 11]: 93.3 pg/mL
- % reduction [9, 12]: 95.6%
- p24 [9, 12]: 24.0 pg/mL
- % reduction [9, 13]: 67.8%
- p24 [9, 13]: 174.7 pg/mL
- % reduction [9, 14]: 92.8%
- p24 [9, 14]: 1636 pg/mL
- % reduction [9, 15]: 95.9%
- p24 [9, 15]: 938 pg/mL
- % reduction [9, 16]: 59.4%
- p24 [9, 16]: 9211 pg/mL
- % reduction [9, 17]: 31.9%
- p24 [9, 17]: 219.2 pg/mL
- % reduction [9, 18]: 39.6%
- p24 [9, 18]: 194.3 pg/mL
- % reduction [9, 19]: 46.1%
- p24 [9, 19]: 173.5 pg/mL
- % reduction [9, 20]: 0%
- p24 [9, 20]: 4760.8 pg/mL
- % reduction [9, 21]: 12.3%
- p24 [9, 21]: 3574.4 pg/mL
- % reduction [9, 22]: 45.9%
- p24 [9, 22]: 2203.7 pg/mL
- % reduction [9, 23]: 11.6%
- p24 [9, 23]: 6700.6 pg/mL
- % reduction [9, 24]: 9.1%
- p24 [9, 24]: 6893.0 pg/mL
- % reduction [9, 25]: 0%
- p24 [9, 25]: 7578.4 pg/mL
- % reduction [9, 26]: 0%
- p24 [9, 26]: 255.6 pg/mL
- % reduction [9, 27]: 41.7%
- p24 [9, 27]: 107.3 pg/mL
- % reduction [9, 28]: 47.3%
- p24 [9, 28]: 96.9 pg/mL
- % reduction [9, 29]: 29.8%
- p24 [9, 29]: 170 pg/mL
- % reduction [9, 30]: 0%
- p24 [9, 30]: 487.4 pg/mL
- % reduction [9, 31]: 78.6%
- p24 [9, 31]: 51.7 pg/mL
- % reduction [9, 32]: 73.9%
- p24 [9, 32]: 79.6 pg/mL
- % reduction [9, 33]: 0%
- p24 [9, 33]: 439.3 pg/mL
- % reduction [9, 34]: 80.3%
- p24 [9, 34]: 60 pg/mL
- toxic effects [10]: no apparent toxic effects
